Data as given in PMC6321014, “Effects of Toona sinensis Leaf Extract and Its Chemical Constituents on Xanthine Oxidase Activity and Serum Uric Acid Levels in Potassium Oxonate-Induced Hyperuricemic Rats” (Molecules, 2018).
“And” between values parts separate entries of the source, which are not always exact repeats. Equal entries are not always repeated. “Also recorded” adds a separate entry of the source. Where two headings read alike, the source gives them in different places. Each block holds one molecule with its values, some of them ahead of it.

Experiments:
[1] = test system: potassium oxonate-induced hyperuricemic rats; assay: Serum uric acid levels in potassium oxonate (PO)-induced hyperuricemic rats; format: in vivo, rat (male Sprague-Dawley); settings: for effect on serum uric acid levels (in words): 40 mg/kg, PO-induced hyperuricemic rats
Protocol: Male Sprague–Dawley rats (7 weeks old) were purchased from Orient Bio (Seongmam, Korea) and were housed at a temperature of 22 ± 1 °C with 50 ± 10% humidity under a 12 h light/dark cycle with free access to a laboratory diet and water. The experimental design was approved by the Committee on Animal Care of the Korea Institute of Oriental Medicine, and all experiments were performed in accordance with committee guidelines. The uricase inhibitor PO was administered to induce hyperuricemia. The rats were divided into the following five groups (n = 6/group): (1) Normal control group; […] (3) PO + 300 mg/kg TSE group; […] Blood samples were collected via cardiac puncture under anesthesia 2 h after oral treatment. Serum was obtained by centrifugation of blood at 3000× g for 10 min at 4 °C. The separated serum was stored at −80 °C until analysis. Serum uric acid levels were determined by an enzymatic-colorimetric method using a commercial assay kit (Biovision, Milpitas, CA, USA) according to the manufacturer’s protocol.

[2] = molecular target: T1, xanthine oxidase (XO) enzyme (bovine milk) (Bos taurus, UniProt P80457); assay: In vitro xanthine oxidase (XO) assay, uric acid formation at 295 nm with xanthine as substrate; format: biochemical; settings: for Xanthine Oxidase Kinetic Mode: Lineweaver-Burk and Dixon plots; for inhibition at 100 µM: read-out: Xanthine Oxidase Inhibition %; for IC50: repeated three times
T1 construct: 20 µL of 0.2 unit XO enzyme (bovine milk) in buffer; from tissue; host or cells: bovine milk
Protocol: We subsequently analyzed the type of inhibition using both Lineweaver–Burk (Figure 2C) and Dixon (Figure 2D) plots.
XO activity was assayed spectrophotometrically on a Spectra Max M2 microplate reader, using published experimental procedures, with slight modifications. First, 135 µL of 100 mM sodium pyrophosphate buffer (HCl, pH 7.5), 20 µL of 0.2 unit XO enzyme (bovine milk) in buffer, and 5 µL of sample (test extract or compound) in DMSO were mixed at 37 °C. The reaction was started by adding 40 µL of substrate (0.5 mM xanthine) in buffer to the mixture. The reaction mixture (200 µL) was incubated at 37 °C in a 300 µL well plate, and the UV absorbance was determined at 295 nm.

[3] = molecular target: T1, xanthine oxidase (XO) enzyme (bovine milk); settings: cited from earlier work; for XO inhibitory effect (in words): literature statement, ref 23 (Cos et al.)
[4] = isolated compounds and controls, read-out: Xanthine Oxidase IC50
[5] = sample concentration 100 µM for each compound

T1 sequence (P80457 whole entry): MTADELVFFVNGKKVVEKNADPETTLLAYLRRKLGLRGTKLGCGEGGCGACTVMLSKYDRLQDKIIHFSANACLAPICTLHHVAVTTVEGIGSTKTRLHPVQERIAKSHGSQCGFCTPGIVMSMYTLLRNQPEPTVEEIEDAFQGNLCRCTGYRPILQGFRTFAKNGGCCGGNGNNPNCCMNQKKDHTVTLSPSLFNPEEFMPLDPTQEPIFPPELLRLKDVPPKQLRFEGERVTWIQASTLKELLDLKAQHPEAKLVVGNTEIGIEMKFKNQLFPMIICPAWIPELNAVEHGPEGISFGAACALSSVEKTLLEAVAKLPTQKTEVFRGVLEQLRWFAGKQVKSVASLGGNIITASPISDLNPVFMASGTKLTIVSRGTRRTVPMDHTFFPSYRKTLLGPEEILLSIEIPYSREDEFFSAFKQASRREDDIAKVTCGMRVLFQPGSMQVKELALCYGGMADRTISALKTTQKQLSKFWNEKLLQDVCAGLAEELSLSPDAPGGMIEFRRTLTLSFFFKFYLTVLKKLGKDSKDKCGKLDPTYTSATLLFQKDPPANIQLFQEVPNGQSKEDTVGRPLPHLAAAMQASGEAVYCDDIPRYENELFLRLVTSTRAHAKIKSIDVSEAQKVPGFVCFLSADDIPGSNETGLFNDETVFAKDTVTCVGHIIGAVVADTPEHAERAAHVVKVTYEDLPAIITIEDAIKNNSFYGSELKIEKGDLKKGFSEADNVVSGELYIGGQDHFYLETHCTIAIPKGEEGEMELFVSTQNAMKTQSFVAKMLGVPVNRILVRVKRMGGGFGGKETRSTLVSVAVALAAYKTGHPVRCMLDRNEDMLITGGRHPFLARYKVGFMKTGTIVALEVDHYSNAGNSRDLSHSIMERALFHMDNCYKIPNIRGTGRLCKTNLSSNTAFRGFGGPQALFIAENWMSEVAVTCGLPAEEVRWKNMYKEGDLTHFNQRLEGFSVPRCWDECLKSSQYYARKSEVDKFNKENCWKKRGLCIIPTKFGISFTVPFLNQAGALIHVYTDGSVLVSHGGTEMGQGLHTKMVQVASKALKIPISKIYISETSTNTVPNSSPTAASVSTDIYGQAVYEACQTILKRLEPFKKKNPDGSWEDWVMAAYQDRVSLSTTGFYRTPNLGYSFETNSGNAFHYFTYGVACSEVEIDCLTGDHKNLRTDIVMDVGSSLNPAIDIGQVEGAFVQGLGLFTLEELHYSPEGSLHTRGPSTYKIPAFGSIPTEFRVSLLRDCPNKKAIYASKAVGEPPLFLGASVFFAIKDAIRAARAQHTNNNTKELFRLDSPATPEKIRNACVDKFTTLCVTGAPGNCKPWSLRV

Compound: Oc1ncnc2[nH]ncc12 [Allopurinol, allopurinol, reference compound]
decrease in serum uric acid level ([1]; 10 mg/kg oral gavage, positive control, rats): 43.5%
Xanthine Oxidase Kinetic Mode [2]: Competitive
inhibition at 100 µM [2]: > 98%

Compound: C[C@@H]1O[C@@H](OC[C@H]2O[C@@H](Oc3c(-c4ccc(O)c(O)c4)oc4cc(O)cc(O)c4c3=O)[C@H](O)[C@@H](O)[C@@H]2O)[C@H](O)[C@H](O)[C@H]1O [Compound 1, quercetin-3-O-rutinoside]
IC50 [2, 4]: > 100 µM
inhibition at 100 µM [2, 5]: 42.9 ± 1.4%

Compound: O=c1c(O[C@@H]2O[C@H](CO)[C@@H](O)[C@H](O)[C@H]2O)c(-c2ccc(O)c(O)c2)oc2cc(O)cc(O)c12 [Compound 2, quercetin-3-O-β-D-glucopyranoside]
IC50 [2, 4]: > 100 µM
inhibition at 100 µM [2, 5]: 47.8 ± 1.1%

Ki ([2]; Dixon plots, substrate 50, 100, 200 µM, read-out: Xanthine Oxidase Ki (inhibition constant)): 3.1 µM
Xanthine Oxidase Kinetic Mode [2]: noncompetitive inhibitor
reversibility of XO inhibition ([2]; compound 0-12.5 μM versus XO 0-0.2 unit/mL): reversible XO inhibitor
IC50 [2, 4]: 2.8 µM and 2.79 µM
inhibition at 100 µM [2, 5]: 96.4 ± 0.7%
Compound: O=C(OC[C@H]1O[C@@H](OC(=O)c2cc(O)c(O)c(O)c2)[C@H](OC(=O)c2cc(O)c(O)c(O)c2)[C@@H](OC(=O)c2cc(O)c(O)c(O)c2)[C@@H]1OC(=O)c1cc(O)c(O)c(O)c1)c1cc(O)c(O)c(O)c1 [Compound 3, 1,2,3,4,6-penta-O-galloyl-β-D-glucopyranose]
reduction in serum uric acid levels compared to the PO group ([1]; 40 mg/kg oral gavage 1 h after PO, blood 2 h after treatment, rats): 20.7%
effect on serum uric acid levels (in words) [1]: significantly decreased serum uric acid levels; also recorded: lowered serum uric acid levels

Compound: CC1OC(Oc2c(-c3ccc(O)c(O)c3)oc3cc(O)cc(O)c3c2=O)C(O)C(O)C1O [Compound 4, quercetin-3-O-α-L-rhamnopyranoside]
effect on serum uric acid levels (in words) [1]: no effect
IC50 ([2]; Xanthine Oxidase IC50, isolated compounds and controls): > 100 µM
inhibition at 100 µM [2]: 38.9 ± 1.9%

IC50 [2, 4]: 28.4 ± 0.5 µM
inhibition at 100 µM [2, 5]: 87.6 ± 0.9%
Compound: O=c1[nH]c(=O)c2c[nH]nc2[nH]1 [Oxypurinol, oxypurinol, reference compound]
XO inhibitory activity compared to allopurinol (in words) ([3]; XO screening, ref 25 (Tamta et al.)): much lower inhibitory activity than allopurinol

Compound: O=c1c(O)c(-c2ccc(O)cc2)oc2cc(O)cc(O)c12 [kaempferol]
XO inhibitory effect (in words) [3]: strong XO inhibitory effects

Compound: O=c1c(O)c(-c2ccc(O)c(O)c2)oc2cc(O)cc(O)c12 [quercetin]
XO inhibitory effect (in words) [3]: strong XO inhibitory effects
